Values quoted from earlier work in publication PMC12356143 (RSC Medicinal Chemistry, 2025).

Tests used:
FIPV M^pro = conditions: literature value; cited from earlier work
M^pro WT = conditions: literature value; cited from earlier work

Compound | IC50 (FIPV M^pro) [nM] | K M (M^pro WT) | k cat (M^pro WT)
CC(C)CC(NC(=O)OCc1ccccc1)C(=O)NC(CC1CCNC1=O)C(O)S(=O)(=O)O (stereo not shown) [GC376] | 130 ± 20 |  | 
COc1cccc2[nH]c(C(=O)NC(CC3CC3)C(=O)NC(CC3CCNC3=O)C(O)S(=O)(=O)O)cc12 (stereo not shown) [compound 4] | 60 ± 20 |  | 
Dabcyl-KTSAVLQ↓SGFRKME(Edans)-NH2 [Dabcyl-KTSAVLQ↓S GFRKME(Edans)-NH2] |  | 4.6 × 10^−6 (lit. [23]) M | 0.29 ± 0.03 (lit. [23]) s^−1
O=C(NC(CC1CC1)C(=O)NC(CC1CCNC1=O)C(O)S(=O)(=O)O)OCCc1cccc(Cl)c1 (stereo not shown) [compound 5] | 50 ± 20 |  | 
2-Abz-SVTLQ↓SGY^(NO2)R-OH |  | 80 × 10^−6 (lit. [10]) M | 2.25 ± 0.1 (lit. [10]) s^−1
